Laboratory results from publication PMC3806465, “Discovery and Evaluation of Thiazinoquinones as Anti-Protozoal Agents” (Marine Drugs, 2013).
Where two headings read alike, the source gives them in different places. One block for each compound: values may come before it.

Columns and labels:
[1] = test system: Trypanosoma cruzi, Tulahuen C4 strain, amastigotes stage; test: In vitro activity against T. cruzi; type: cell-based
Procedure: (§1) The in vitro activities against the protozoan parasites T.b. rhodesiense, T. cruzi, L. donovani, and P. falciparum and cytotoxicity assessment against L6 cells were determined as reported elsewhere.

[2] = test system: Plasmodium falciparum, K1 strain, IEF stage; test: In vitro activity against P. falciparum K1; type: cell-based; conditions: for SI Pf: Selectivity index for P. falciparum = IC50 L6/IC50 Pf
Procedure: as §1

[3] = test system: Leishmania donovani, MHOM-ET-67/L82 strain, amastigote/axenic stage; test: In vitro activity against L. donovani; type: cell-based
Procedure: as §1

[4] = test system: L6 rat skeletal myoblast cell line; test: Cytotoxicity against L6 cells; type: cell-based
Procedure: as §1

[5] = test system: Trypanosoma brucei rhodesiense, STIB 900 strain, trypomastigotes stage; test: In vitro activity against T. b. rhodesiense; type: cell-based
Procedure: as §1

[6] = Trypanosoma cruzi, TULAHUEN, Tulahuen C4, amastigotes, average of two independent assays, read-out: IC50 T. cruzi
[7] = Leishmania donovani, MHOM-ET-67/L82, axenic amastigotes, average of two independent assays, read-out: IC50 L. don.
[8] = Rattus norvegicus, Myoblast, cytotoxicity, L6 rat skeletal myoblasts, average of two independent assays, read-out: IC50 L6
[9] = Trypanosoma brucei, STIB 900, trypomastigotes, average of two independent assays, read-out: IC50 T. b. rhod.
[10] = Plasmodium falciparum, K1 dual drug resistant strain, IEF stage, average of two independent assays, read-out: IC50 P. falc. K1

Structure (SMILES): O=C(Cn1ccnc1[N+](=O)[O-])NCc1ccccc1 [Benznidazole, reference compound]
IC50 ([1]; Trypanosoma cruzi, TULAHUEN, Myoblast, in Rattus norvegicus, read-out: IC50 T. cruzi, Tulahuen C2C4, amastigote forms in L6 rat myoblasts, positive control): 0.352 µg/mL
IC50 [1, 6]: 1.8 µM
IC50 ([1]; Tulahuen C4, amastigotes, average of two independent assays, read-out: IC50 T. cruzi): 1.4 µM

Structure (SMILES): CCN(CC)CCCC(C)Nc1ccnc2cc(Cl)ccc12 (stereo not drawn) [Chloroquine, reference compound]
IC50 ([2]; Plasmodium falciparum, K1, read-out: IC50 P. falc. K1, K1 dual drug resistant strain, IEF stage, average of two independent assays): 0.2 µM
IC50 ([2]; Plasmodium falciparum, K1, read-out: IC50 P. falciparum, K1 (chloroquine and pyrimethamine resistant), erythrocytic stages, positive control): 0.065 µg/mL
IC50 ([2]; read-out: IC50 P. falc. K1, K1 dual drug resistant strain, IEF stage, average of two independent assays): 0.28 µM

Structure (SMILES): O=C(O)c1ccc2c(n1)C(=O)C1=C(C2=O)S(=O)(=O)CCN1 [Compound 2, ascidiathiazone A]
IC50 [3, 7]: 270 µM
IC50 [4, 8]: 167 µM
IC50 ([4]; cytotoxicity, L6 rat skeletal myoblasts, average of two independent assays, read-out: IC50 L6): 170 µM
IC50 [5, 9]: 3.1 µM
IC50 [2, 10]: 3.3 µM
SI Pf [2]: 50
IC50 [1, 6]: > 290 µM

Structure (SMILES): COC(=O)c1ccc2c(n1)C(=O)C1=C(C2=O)S(=O)(=O)CCN1 [Compound 3]
IC50 [3, 7]: 31 µM
IC50 [4, 8]: 140 µM
IC50 [5, 9]: 6.6 µM
IC50 [2, 10]: 2.5 µM
SI Pf [2]: 56
IC50 [1, 6]: 180 µM

Structure (SMILES): O=C(O)c1ccc2c(n1)C(=O)C1=C(C2=O)S(=O)(=O)C=CN1 [Compound 4]
IC50 [3, 7]: 190 µM
IC50 [4, 8]: 180 µM
IC50 [5, 9]: 4 µM
IC50 [2, 10]: 0.6 µM
SI Pf [2]: 300
IC50 [1, 6]: > 290 µM

Structure (SMILES): CCCCNC(=O)c1ccc2c(n1)C(=O)C1=C(C2=O)S(=O)(=O)CCN1 [Compound 7a, N-n-Butyl-5,10-dioxo-3,4,5,10-tetrahydro-2H-[1,4]thiazino[2,3-g]quinoline-7-carboxamide 1,1-Dioxide]
IC50 [3, 7]: > 280 µM
melting point: 200 °C (dec.)
IC50 [4, 8]: 24 µM
IC50 [5, 9]: 5.5 µM
IC50 [2, 10]: 0.94 µM
SI Pf [2]: 26
IC50 [1, 6]: 63 µM

Structure (SMILES): CCCCCNC(=O)c1ccc2c(n1)C(=O)C1=C(C2=O)S(=O)(=O)CCN1 [Compound 7b, N-n-Pentyl-5,10-dioxo-3,4,5,10-tetrahydro-2H-[1,4]thiazino[2,3-g]quinoline-7-carboxamide 1,1-Dioxide]
IC50 [3, 7]: 29 µM
melting point: 200 °C (dec.)
IC50 [4, 8]: 23 µM
IC50 [5, 9]: 1.8 µM
IC50 [2, 10]: 0.62 µM
SI Pf [2]: 37
IC50 [1, 6]: 15 µM

Structure (SMILES): CCCCCCCCNC(=O)c1ccc2c(n1)C(=O)C1=C(C2=O)S(=O)(=O)CCN1 [Compound 7c, N-n-Octyl-5,10-dioxo-3,4,5,10-tetrahydro-2H-[1,4]thiazino[2,3-g]quinoline-7-carboxamide 1,1-Dioxide]
IC50 [3, 7]: 48 µM
melting point: 200 °C (dec.)
IC50 [4, 8]: 12 µM
IC50 [5, 9]: 3.9 µM
IC50 [2, 10]: 1.1 µM
SI Pf [2]: 10
IC50 [1, 6]: 15 µM

Structure (SMILES): O=C(NCc1ccccc1)c1ccc2c(n1)C(=O)C1=C(C2=O)S(=O)(=O)CCN1 [Compound 7d, N-Benzyl-5,10-dioxo-3,4,5,10-tetrahydro-2H-[1,4]thiazino[2,3-g]quinoline-7-carboxamide 1,1-Dioxide]
IC50 [3, 7]: 21 µM
melting point: 200 °C (dec.)
IC50 [4, 8]: 15 µM
IC50 [5, 9]: 1.9 µM
IC50 [2, 10]: 1.1 µM
SI Pf [2]: 14
IC50 [1, 6]: 43 µM

Structure (SMILES): O=C(NCCc1ccccc1)c1ccc2c(n1)C(=O)C1=C(C2=O)S(=O)(=O)CCN1 [Compound 7e, N-Phenethyl-5,10-dioxo-3,4,5,10-tetrahydro-2H-[1,4]thiazino[2,3-g]quinoline-7-carboxamide 1,1-Dioxide]
IC50 [3, 7]: 160 µM
melting point: 240 °C (dec.)
IC50 [4, 8]: 110 µM
IC50 [5, 9]: 2.4 µM
IC50 [2, 10]: 1.5 µM
SI Pf [2]: 72
IC50 [1, 6]: 140 µM

Structure (SMILES): O=C(NCCCc1ccccc1)c1ccc2c(n1)C(=O)C1=C(C2=O)S(=O)(=O)CCN1 [Compound 7f, N-(3-Phenylpropyl)-5,10-dioxo-3,4,5,10-tetrahydro-2H-[1,4]thiazino[2,3-g] quinoline-7-carboxamide 1,1-Dioxide]
IC50 [3, 7]: 47 µM
melting point: 204 °C (dec.)
IC50 [4, 8]: 13 µM
IC50 [5, 9]: 2.4 µM
IC50 [2, 10]: 1.4 µM
SI Pf [2]: 10
IC50 [1, 6]: 27 µM

Structure (SMILES): CC(C)=CCC/C(C)=C/CNC(=O)c1ccc2c(n1)C(=O)C1=C(C2=O)S(=O)(=O)CCN1 [Compound 7g, (E)-N-(3,7-Dimethylocta-2,6-dien-1-yl)-5,10-dioxo-3,4,5,10-tetrahydro-2H-[1,4]thiazino [2,3-g]quinoline-7-carboxamide 1,1-Dioxide]
IC50 [3, 7]: 83 µM
melting point: 200 °C (dec.)
IC50 [4, 8]: 24 µM
IC50 [5, 9]: 3.4 µM
IC50 [2, 10]: 1.6 µM
SI Pf [2]: 15
IC50 [1, 6]: 41 µM

Structure (SMILES): C#CCNC(=O)c1ccc2c(n1)C(=O)C1=C(C2=O)S(=O)(=O)CCN1 [Compound 7h, N-(Prop-2-yn-1-yl)-5,10-dioxo-3,4,5,10-tetrahydro-2H-[1,4]thiazino[2,3-g]quinoline-7-carboxamide 1,1-Dioxide]
IC50 [3, 7]: 170 µM
melting point: 280 °C (dec.)
IC50 [4, 8]: 41 µM
IC50 [5, 9]: > 150 µM
IC50 [2, 10]: 2.4 µM
SI Pf [2]: 17
IC50 [1, 6]: 53 µM

melting point: 200 °C (dec.)
Structure (SMILES): COCCNC(=O)c1ccc2c(n1)C(=O)C1=C(C2=O)S(=O)(=O)CCN1 [Compound 7i, N-(2-Methoxyethyl)-5,10-dioxo-3,4,5,10-tetrahydro-2H-[1,4]thiazino[2,3-g] quinoline-7-carboxamide 1,1-Dioxide]

Structure (SMILES): COC(=O)CNC(=O)c1ccc2c(n1)C(=O)C1=C(C2=O)S(=O)(=O)CCN1 [Compound 7j, Methyl 2-(1,1-Dioxido-5,10-dioxo-3,4,5,10-tetrahydro-2H-[1,4]thiazino[2,3-g]quinoline-7-carboxamido)acetate]
IC50 [3, 7]: > 260 µM
melting point: 200 °C (dec.)
IC50 [4, 8]: 110 µM
IC50 [5, 9]: 120 µM
IC50 [2, 10]: 3.4 µM
SI Pf [2]: 31
IC50 [1, 6]: 250 µM

Structure (SMILES): CCCCNC(=O)c1ccc2c(n1)C(=O)C1=C(C2=O)S(=O)(=O)C=CN1 [Compound 8a, N-n-Butyl-5,10-dioxo-5,10-dihydro-4H-[1,4]thiazino[2,3-g]quinoline-7-carboxamide 1,1-Dioxide]
IC50 [3, 7]: > 280 µM
melting point: 200 °C (dec.)
IC50 [4, 8]: 23 µM
IC50 [5, 9]: 3.7 µM
IC50 [2, 10]: 0.7 µM
SI Pf [2]: 33
IC50 [1, 6]: 63 µM

Structure (SMILES): CCCCCNC(=O)c1ccc2c(n1)C(=O)C1=C(C2=O)S(=O)(=O)C=CN1 [Compound 8b, N-n-Pentyl-5,10-dioxo-5,10-dihydro-4H-[1,4]thiazino[2,3-g]quinoline-7-carboxamide 1,1-Dioxide]
IC50 [3, 7]: > 270 µM
melting point: 280 °C (dec.)
IC50 [4, 8]: 4.8 µM
IC50 [5, 9]: 3.6 µM
IC50 [2, 10]: 1.5 µM
SI Pf [2]: 3
IC50 [1, 6]: 48 µM

Structure (SMILES): COC(=O)CNC(=O)c1ccc2c(n1)C(=O)C1=C(C2=O)S(=O)(=O)C=CN1 [Compound 8j, Methyl 2-(1,1-dioxido-5,10-dioxo-5,10-dihydro-4H-[1,4]thiazino[2,3-g]quinoline-7-carboxamido)acetate]
IC50 [3, 7]: 220 µM
IC50 [4, 8]: 100 µM
IC50 [5, 9]: 35 µM
IC50 [2, 10]: 1.8 µM
SI Pf [2]: 57
IC50 [1, 6]: 160 µM

Structure (SMILES): O=C(O)CNC(=O)c1ccc2c(n1)C(=O)C1=C(C2=O)S(=O)(=O)C=CN1 [Compound 8k, 2-(1,1-Dioxido-5,10-dioxo-5,10-dihydro-4H-[1,4]thiazino[2,3-g]quinoline-7-carboxamido)acetic Acid]
IC50 [3, 7]: > 280 µM
IC50 [4, 8]: 110 µM
IC50 [5, 9]: 42 µM
IC50 [2, 10]: 1.2 µM
SI Pf [2]: 93
IC50 [1, 6]: 160 µM

melting point: 280 °C (dec.)
Structure (SMILES): COC(=O)c1cc2c(s1)C(=O)C1=C(NCCS1(=O)=O)C2=O [Compound 10b, Methyl 5,9-Dioxo-2,3,5,9-tetrahydro-1H-thieno[3′,2′:4,5]benzo [1,2-b][1,4]thiazine-7-carboxylate 4,4-Dioxide]

melting point: 200 °C (dec.)
Structure (SMILES): O=C(O)c1cc2c(s1)C(=O)C1=C(NCCS1(=O)=O)C2=O [Compound 11b, 5,9-Dioxo-2,3,5,9-tetrahydro-1H-thieno[3′,2′:4,5]benzo[1,2-b][1,4] thiazine-7-carboxylic Acid 4,4-Dioxide]

Structure (SMILES): Nc1nc(N)nc(Nc2ccc([As]3SCC(CO)S3)cc2)n1 (stereo not drawn) [Melarsoprol, reference compound]
IC50 ([5]; Trypanosoma brucei, read-out: IC50 T. b. rhod., STIB 900, trypomastigotes, average of two independent assays): 0.005 µM
IC50 ([5]; Trypanosoma brucei, read-out: IC50 T.b. rhodesiense, STIB900, trypomastigote forms, positive control): 0.004 µg/mL
IC50 ([5]; read-out: IC50 T. b. rhod., STIB 900, trypomastigotes, average of two independent assays): 0.01 µM

IC50 [3, 7]: 0.5 µM
IC50 ([3]; Leishmania donovani, MHOM/ET/67/L82, axenic amastigote forms, positive control, read-out: IC50 L. donovani): 0.213 µg/mL
IC50 ([3]; MHOM-ET-67/L82, axenic amastigotes, average of two independent assays, read-out: IC50 L. don.): 0.53 µM
Structure (SMILES): CCCCCCCCCCCCCCCCOP(=O)([O-])OCC[N+](C)(C)C [Miltefosine, reference compound]

Structure (SMILES): COc1cc([C@@H]2c3cc4c(cc3[C@H](O)[C@H]3COC(=O)[C@H]23)OCO4)cc(OC)c1OC [Podophyllotoxin, reference compound]
IC50 ([4]; Rattus norvegicus, L6, read-out: IC50 L6 cells, rat skeletal myoblasts, positive control): 0.004 µg/mL
IC50 ([4]; Rattus norvegicus, Myoblast, read-out: IC50 L6, cytotoxicity, L6 rat skeletal myoblasts, average of two independent assays): 0.01 µM
IC50 ([4]; read-out: IC50 L6, cytotoxicity, L6 rat skeletal myoblasts, average of two independent assays): 0.019 µM
